How the values were obtained:
[1] = PDMS sheets cleaned by Soxhlet with ethyl acetate; batch shaking method with a mixture of all chemicals at several PDMS-mass to water-volume ratios and spiked levels; vials shaken on an orbital shaker at room temperature in the dark, sampled at two equilibration times; PDMS extracts and water quantified by LC-HRMS (Orbitrap); D from the slope of C_PDMS on C_w or their ratio; value is the mean over that pH's experiments (individual experiments in the SI's concentrations table), sd is the table's stdev; conditions: PDMS (polydimethylsiloxane silicone sheet), phosphate buffer at three target pH values (the paper's methods)
[2] = neutral chemical: log K is the mean of log D over all measurements at the three pH values (D shown independent of pH, paired t-test); sd is the table's stddev. PDMS sheets cleaned by Soxhlet with ethyl acetate; batch shaking method with a mixture of all chemicals at several PDMS-mass to water-volume ratios and spiked levels; vials shaken on an orbital shaker at room temperature in the dark, sampled at two equilibration times; PDMS extracts and water quantified by LC-HRMS (Orbitrap); D from the slope of C_PDMS on C_w or their ratio; conditions: PDMS (polydimethylsiloxane silicone sheet); phosphate buffer at three target pH values (the paper's methods)
[3] = monoprotic acid or base: log K of the neutral species extrapolated from the linear regression of D on the neutral fraction (from pKa and pH; the paper's eq. for monoprotic IOCs), the slope giving K of the neutral species; replicates column holds the table's 95% confidence limits. PDMS sheets cleaned by Soxhlet with ethyl acetate; batch shaking method with a mixture of all chemicals at several PDMS-mass to water-volume ratios and spiked levels; vials shaken on an orbital shaker at room temperature in the dark, sampled at two equilibration times; PDMS extracts and water quantified by LC-HRMS (Orbitrap); D from the slope of C_PDMS on C_w or their ratio; conditions: PDMS (polydimethylsiloxane silicone sheet); phosphate buffer at three target pH values (the paper's methods)

| SMILES | log D PDMS/w (apparent distribution ratio at the stated pH) ([1]; pH 3) | log D PDMS/w (apparent distribution ratio at the stated pH) ([1]; pH 7.4) | log D PDMS/w (apparent distribution ratio at the stated pH) ([1]; pH 11.5) | log K PDMS/w (neutral species) [2] | log K PDMS/w (neutral species) [3] |
| --- | --- | --- | --- | --- | --- |
| N#Cc1nn(-c2c(Cl)cc(C(F)(F)F)cc2Cl)c(N)c1S(=O)(=O)C(F)(F)F | 2.417 log units; D and K as the pape | 2.376 log units; D and K as the pape | 2.192 log units; D and K as the pape | 2.329 log units; D and K as the pape | – |
| CCCCOCCOCCOCc1cc2c(cc1CCC)OCO2 | 3.728 log units; D and K as the pape | 3.685 log units; D and K as the pape | 3.574 log units; D and K as the pape | 3.661 log units; D and K as the pape | – |
| N#CSCSc1nc2ccccc2s1 | 1.914 log units; D and K as the pape | 1.821 log units; D and K as the pape | – | 1.857 log units; D and K as the pape | 1.892 log units; D and K as the pape |
| CN(C)C(=O)Nc1ccc(Cl)c(Cl)c1 | 1.406 log units; D and K as the pape | 1.371 log units; D and K as the pape | 1.462 log units; D and K as the pape | 1.409 log units; D and K as the pape | – |
| CC(C)Nc1nc(N)nc(Cl)n1 | 0.418 log units; D and K as the pape | 0.4125 log units; D and K as the pape | 0.411 log units; D and K as the pape | 0.4139 log units; D and K as the pape | – |

— paper PMC10114720
